Where a name gives a salt, the structure may show the parent alone.

The melting point is the temperature of the solid-liquid transition. The inhibition is the drop in the measured response relative to a control, in per cent. The low end stands for little suppression, the high end for strong suppression.

Test system in the first series: not given
Test: not given
Conditions: not given
On to `O=C(O)CC(=O)Nc1ccc2c(c1)c(=O)[nH]c(=O)n2CCCCN1CCC(OC(c2ccccc2)c2ccccc2)CC1` [Example 48, [2,4-Dioxo-1-[4-(4-diphenylmethoxypiperidino)butyl]-1,2,3,4-tetrahydro-6-quinazolinyl]carbamoylacetic acid], for which the melting point lay within 166 to 168 °C.

In turn, `COC(=O)C(C)(C)c1ccc2c(c1)c(=O)[nH]c(=O)n2CCCCN1CCC(OC(c2ccccc2)c2ccccc2)CC1.Cl` yielded a melting point of 223 to 225 °C.

With `Cl.O=c1[nH]c(=O)n(CCCCN2CCN(C(c3ccccc3)c3ccccc3)CC2)c2ccccc12`, the melting point was in the range of 161 to 163 °C.

Take `COC(=O)c1ccc2c(=O)[nH]c(=O)n(CCCCN3CCC(OC(c4ccccc4)c4ccccc4)CC3)c2c1` [Example 85, Methyl 2,4-dioxo-1-[4-(4-diphenylmethoxypiperidino)butyl]-1,2,3,4-tetrahydroquinazoline-7-carboxylate]: the melting point is 192 to 194 °C.

Consider `O=C(O)c1ccc2c(c1)c(=O)[nH]c(=O)n2CCCCN1CCC(OC(c2ccccc2)c2ccccc2)CC1` [Example 89, 2,4-Dioxo-1-[4-(4-diphenylmethoxypiperidino)butyl]-1,2,3,4-tetrahydroquinazoline-6-carboxylic acid], for which the melting point lay within 161 to 163 °C.

`O=c1[nH]c(=O)n(CCCN2CCC(OC(c3ccccc3)c3ccccc3)CC2)c2ccccc12` [Example 1, 2,4-Dioxo-1-[3-(4-diphenylmethoxy-1-piperidinyl)propyl]-1,2,3,4-tetrahydroquinazoline] registered a melting point of 149 to 151 °C.

Compound `O=C(O)Cn1c(=O)n(CCCCN2CCC(OC(c3ccccc3)c3ccccc3)CC2)c(=O)c2ccccc21` [Example 72, 2,4-Dioxo-3-[4-(4-diphenylmethoxypiperidino)butyl]-1,2,3,4-tetrahydroquinazoline-1-acetic acid] displayed a melting point of 153 to 155 °C.

The compound `O=C(O)CCCn1c(=O)n(CCCCN2CCC(OC(c3ccccc3)c3ccccc3)CC2)c(=O)c2ccccc21` [Example 78, 2,4-Dioxo-3-[4-(4-diphenylmethoxypiperidino)butyl]-1,2,3,4-tetrahydroquinazoline-1-butyric acid] showed a melting point of 227 to 229 °C.

`O=C(O)Cn1c(=O)c2ccccc2n(CCCCN2CCC(OC(c3ccccc3)c3ccccc3)CC2)c1=O` [Example 50, 2,4-Dioxo-1-[4-(4-diphenylmethoxypiperidino)butyl]-1,2,3,4-tetrahydroquinazoline-3-acetic acid] gave a melting point of 184 to 186 °C.

With `O=C(O)c1ccc2c(=O)[nH]c(=O)n(CCCCN3CCC(OC(c4ccccc4)c4ccccc4)CC3)c2c1` [Example 90, 2,4-Dioxo-1-[4-(4-diphenylmethoxypiperidino)butyl]-1,2,3,4-tetrahydroquinazoline-7-carboxylic acid], the melting point is 177 to 179 °C.

In the case of `O=c1[nH]c(=O)n(CCCCCN2CCC(OC(c3ccccc3)c3ccccc3)CC2)c2ccccc12` [Example 3, 2,4-Dioxo-1-[5-(4-diphenylmethoxy-1-piperidinyl)pentyl]-1,2,3,4-tetrahydroquinazoline], the melting point lay within 173 to 174 °C.

The compound `CS(=O)(=O)Nc1ccc2c(c1)c(=O)[nH]c(=O)n2CCCCN1CCC(OC(c2ccccc2)c2ccccc2)CC1.Cl` came in with a melting point of 225 to 227 °C.

For the compound `CN(C)c1ccc2c(c1)c(=O)[nH]c(=O)n2CCCCN1CCC(OC(c2ccccc2)c2ccccc2)CC1` [Example 42, 6-Dimethylamino-2,4-dioxo-1-[4-(4-diphenylmethoxypiperidino)butyl]-1,2,3,4-tetrahydroquinazoline], the melting point fell in the range of 165 to 167 °C.

`COC(=O)C1(n2c(=O)c3ccccc3n(CCCCN3CCC(OC(c4ccccc4)c4ccccc4)CC3)c2=O)CCCC1.Cl` had a melting point of 178 to 180 °C.

Compound `O=C(O)CCCCn1c(=O)c2cc(O)ccc2n(CCCCN2CCC(OC(c3ccccc3)c3ccccc3)CC2)c1=O` [Example 105, 2,4-Dioxo-1-[4-(4-diphenylmethoxypiperidino)butyl]-6-hydroxy-1,2,3,4-tetrahydroquinazoline-3-valeric acid] came in with a melting point of 234 to 236 °C.

The compound `O=C(O)CCn1c(=O)c2ccccc2n(CCCN2CCC(OC(c3ccccc3)c3ccccc3)CC2)c1=O` [Example 51, 2,4-Dioxo-1-[3-(4-diphenylmethoxypiperidino)propyl]-1,2,3,4-tetrahydroquinazoline-3-propionic acid] returned a melting point of 150 to 151 °C.

In turn, `O=C(O)CCn1c(=O)n(CCCCN2CCC(OC(c3ccccc3)c3ccccc3)CC2)c(=O)c2ccccc21` [Example 76, 2,4-Dioxo-3-[4-(4-diphenylmethoxypiperidino)butyl]-1,2,3,4-tetrahydroquinazoline-1-propionic acid] had a melting point of 110 to 112 °C.

`Cl.O=c1[nH]c(=O)n(CCCCN2CCC(OC(c3ccccc3)c3ccccc3)CC2)c2ncccc12` yielded a melting point of 121 to 123 °C.

The test system of the next series is guinea-pig eosinophils. Put plainly: Chemotaxis inhibition assay: LTB4-induced chemotaxis in guinea-pig eosinophils. It is filed as cell-based. The conditions noted are these: Cavia porcellus, Eosinophil, test substance 1×10^−5 M, LTB4 10^−8 M, 2 hours. The method, then:
1) Guinea-pig Eosinophil Preparation
Male Hartley guinea-pigs received 2 ml of equine serum (Bio-Whittaker, Inc) intraperitoneally once a week for successive 8 weeks. 48 hours after the last administration, 75 ml of physiological saline was injected into the peritoneal cavity, and the fluid was recovered and centrifuged at 400 G for 5 minutes. […] Erythrocytes in the isolated cell pellet, if any, were removed by hypotonic treatment (suspended in water for 30 seconds).
2) Chemotaxis Inhibition Assay
600 μl of LTB4 suspended in Hanks-Hepes-HSA (final concentration of 10^−8 M, Cascade Biochemical Ltd.) was placed in the lower compartment of a 24-well plate and kept at 37° C. for 30 minutes in a CO2 gas incubator. After mounting a Chemotaxicell (polycarbonate membrane, pore size 3 μm, thickness 10 μm), which served as an upper compartment, on the 24-well plate described above, 200 μl of eosinophil suspension (5×10^6 cells/ml), which had been incubated at 37° C. for 15 minutes in a thermostat chamber, was added to the upper compartment. After allowing to react for 2 hours in the CO2 gas incubator, the Chemotaxicell was removed, and 60 μl of 2% (w/v) EDTA solution in physiological saline was added to the lower compartment. After cooling on ice, the cells which underwent the chemotaxis into the lower compartment were counted using a blood cell counter (Coulter Counter (trade name)). In the procedure described above, the test substance was dissolved in N,N-dimethylformamide (DMF) and added to the upper and lower compartments at the final concentration of 10^−5 M.
% Chemotaxis inhibition=[…] [Equation 2]
The results are shown in [Table 2].
In the case of `COC(=O)COC(=O)Cn1c(=O)c2ccccc2n(CCCCN2CCC(OC(c3ccccc3)c3ccccc3)CC2)c1=O` [Example 69, Methoxycarbonylmethyl 2,4-dioxo-1-[4-(4-diphenylmethoxypiperidino)butyl]-1,2,3,4-tetrahydroquinazoline-3-acetate hydrochloride], 10 µM produced 96% inhibition.

With `O=c1c2ccccc2n(CCCCN2CCC(OC(c3ccccc3)c3ccccc3)CC2)c(=O)n1CCCc1ccccc1` [Example 58, 2,4-Dioxo-1-[4-(4-diphenylmethoxypiperidino)butyl]-3-(3-phenylpropyl)-1,2,3,4-tetrahydroquinazoline hydrochloride], 10 µM produced 84% inhibition.

`O=C(O)CCCCn1c(=O)c2cc(F)ccc2n(CCCCN2CCC(OC(c3ccccc3)c3ccccc3)CC2)c1=O` [Example 101, 2,4-Dioxo-1-[4-(4-diphenylmethoxypiperidino)butyl]-6-fluoro-1,2,3,4-tetrahydroquinazoline-3-valeric acid] registered an inhibition at 10 µM of 50%.

In turn, `COC(=O)CNC(=O)Cn1c(=O)c2ccccc2n(CCCCN2CCC(OC(c3ccccc3)c3ccccc3)CC2)c1=O` [Example 109, 2,4-Dioxo-1-[4-(4-diphenylmethoxypiperidino)butyl]-N-methoxycarbonylmethyl-1,2,3,4-tetrahydroquinazoline-3-acetamide hydrochloride] returned an inhibition at 10 µM of 55%.

Turning to `O=C(O)CNC(=O)CCn1c(=O)c2ccccc2n(CCCCN2CCC(OC(c3ccccc3)c3ccccc3)CC2)c1=O` [Example 116, N-Carboxylmethyl-2,4-dioxo-1-[4-(4-diphenylmethoxypiperidino)butyl]-1,2,3,4-tetrahydroquinazoline-3-propionamide hydrochloride], the inhibition at 10 µM is 52%.

Consider `CN(CC(=O)O)C(=O)Cn1c(=O)c2ccccc2n(CCCCN2CCC(OC(c3ccccc3)c3ccccc3)CC2)c1=O` [Example 114, N-Carboxylmethyl-2,4-dioxo-1-[4-(4-diphenylmethoxypiperidino)butyl]-N-methyl-1,2,3,4-tetrahydroquinazoline-3-acetamide], for which the inhibition at 10 µM is 54%.

The same series, now with this note: test substance 1×10^−5 M, LTB4 10^−8 M, 2 hours.
On to `CC(=O)OCC(=O)Nc1ccc2c(c1)c(=O)[nH]c(=O)n2CCCCN1CCC(OC(c2ccccc2)c2ccccc2)CC1` [Example 46, 6-Acetoxyacetamide-2,4-dioxo-1-[4-(4-diphenylmethoxypiperidino)butyl]-1,2,3,4-tetrahydroquinazoline], for which the “Inhibition (%) of LTB4-induced chemotaxis” value is 52%.

Source of the values: patent publication US6407116B1, “Nitrogenous fused-ring compounds, process for the preparation of the same, and drugs” (Takeda Chemical Industries, Inc., priority 1997, dated 2002).
